In US20170015555A1, “LONG-TERM PRESERVATION AND NOVEL APPLICATION OF CHLOROUS ACID AQUEOUS SOLUTION FORMULATION” (priority 2013, published 2017):

Tests used:
Format in all cases: cell-based
[1] = tested on: E. coli: Escherichia coli IF03927; experiment: Permeability of pathogenic microbes when treatment sheets were laid on vomit; design: unit not given here; settings: 1000 ppm available chlorine
Text: (§1) 1) Chlorous acid aqueous solution formulation (see Example 1: Table 11) Treatment sheet (material: 100% cotton): (about 27×40 cm) *Impregnated at a ratio of weight of treatment sheet (g): amount of liquid (ml)=1:3 2) Imitation vomit (hereinafter, referred to as vomit) Miso solution: adjusted to pH 2 with hydrochloric acid 3) Test Microbes that were used E. coli: Escherichia coli IF03927 Staphylococcus aureus: Staphylococcus aureus IF0 12732 Thermoduric Microbes (Bacillus cereus): Bacillus cereus NBRC15305 Microbes of the genus Salmonella: Salmonella Enteritidis IF03313 Enterohemorrhagic Escherichia coli 0157: Escherichia coli 0157 Enterohemorrhagic Escherichia coli 0111: Escherichia coli 0111 Enterohemorrhagic Escherichia coli 026: Escherichia coli O26
(§2) Permeability of pathogenic microbes into a treatment sheet when treating vomit was examined to compare effects of preventing secondary contamination. (1) Imitation vomit is spread in an area about the size of an A4 sheet. (2) 30 agent solution-containing treatment sheets were laid thereon and left standing for 10 minutes. (3) Treatment sheets were removed one at a time from the top. After diluting with saline, the sample was spread in a petri dish and cultured.

[2] = tested on: Staphylococcus aureus IF0 12732; experiment: as above; design: unit not given here; settings: 1000 ppm available chlorine
Text: as §1, §2

[3] = tested on: Bacillus cereus NBRC15305; experiment: Sterilizing effect on floor surface after wiping off imitation vomit, rubber mattress; settings: 1000 ppm available chlorine
Text: (§3) 1) Chlorous acid aqueous solution formulation (see Example 1: Table 11) Treatment sheet (material: 100% cotton): (about 27×40 cm) *Impregnated at a ratio of weight of treatment sheet (g): amount of liquid (ml)=1:3 2) Imitation vomit Miso solution: adjusted to pH of 2 with hydrochloric acid 3) Test Microbes that were Used E. coli: Escherichia coli IF03927 Staphylococcus aureus: Staphylococcus aureus IF0 12732 Thermoduric Microbes (Bacillus cereus): Bacillus cereus NBRC15305 Microbes of the genus Salmonella: Salmonella Enteritidis IF03313 Enterohemorrhagic Escherichia coli O157: Escherichia coli O157 Enterohemorrhagic Escherichia coli O111: Escherichia coli O111 Enterohemorrhagic Escherichia coli O26: Escherichia coli O26
(§4) (1) Imitation vomit was spread in an area about the size of an A4 sheet. (2) 5 agent solution-containing treatment sheets were laid thereon. (3) The imitation vomit was wiped off. (4) A cotton swab was soaked with sterile saline. A portion where imitation vomit was spread was scrubbed with the cotton swab to collect microbes remaining on the floor. After suspending in saline, the solution was spread on a petri dish and cultured. The number of each of the microbes was measured. (5) Test operations 3 and 4 were repeated a total of 7 times (repeated until the imitation vomit could be removed completely).

[4] = tested on: E. coli: Escherichia coli IF03927; experiment: as above; settings: 1000 ppm available chlorine
Text: as §3, §4

[5] = tested on: Enterohemorrhagic Escherichia coli O111; experiment: as above
Text: as §3, §4

[6] = tested on: Enterohemorrhagic Escherichia coli O157; experiment: as above; settings: 1000 ppm available chlorine
Text: as §3, §4

[7] = tested on: Enterohemorrhagic Escherichia coli O26; experiment: as above; settings: 1000 ppm available chlorine
Text: as §3, §4

[8] = tested on: Microbes of the genus Salmonella: Salmonella Enteritidis IF03313; experiment: as above; settings: 1000 ppm available chlorine
Text: as §3, §4

[9] = tested on: Staphylococcus aureus IF0 12732; experiment: as above; settings: 1000 ppm available chlorine
Text: as §3, §4

pathogenic microbes = experiment: Preventing secondary contamination upon treating vomit, summary over all tested microbes
Text: as §1, §2

[10] = 1000 ppm available chlorine, stored at 25° C. Day 0
[11] = 1000 ppm, stored at 25° C. Day 7

Compound: OCl [Sodium Hypochlorite, sodium hypochlorite]
- microbes in treatment sheet laid on imitation vomit ([1]; 1 sheet, Day 0 at 25° C.): <10
- microbes in treatment sheet laid on imitation vomit ([1]; 1 sheet, Day 7 at 25° C.): >10^6
- microbes in treatment sheet laid on imitation vomit ([1]; 2 sheets, Day 0 at 25° C.): <10
- microbes in treatment sheet laid on imitation vomit ([1]; 2 sheets, Day 7 at 25° C.): >10^6
- microbes in treatment sheet laid on imitation vomit ([1]; 3 sheets, Day 0 at 25° C.): <10
- microbes in treatment sheet laid on imitation vomit ([1]; 3 sheets, Day 7 at 25° C.): >10^6
- microbes in treatment sheet laid on imitation vomit ([1]; 4 sheets, Day 0 at 25° C.): <10
- microbes in treatment sheet laid on imitation vomit ([1]; 4 sheets, Day 7 at 25° C.): >10^6
- microbes in treatment sheet laid on imitation vomit ([1]; 5 sheets, Day 0 at 25° C.): <10
- microbes in treatment sheet laid on imitation vomit ([1]; 5 sheets, Day 7 at 25° C.): >10^6
- microbes in treatment sheet laid on imitation vomit ([1]; 6 sheets, Day 0 at 25° C.): <10
- microbes in treatment sheet laid on imitation vomit ([1]; 6 sheets, Day 7 at 25° C.): >10^6
- microbes in treatment sheet laid on imitation vomit ([1]; 8 sheets, Day 0 at 25° C.): <10
- microbes in treatment sheet laid on imitation vomit ([1]; 8 sheets, Day 7 at 25° C.): >10^6
- microbes in treatment sheet laid on imitation vomit ([1]; 10 sheets, Day 0 at 25° C.): <10
- microbes in treatment sheet laid on imitation vomit ([1]; 10 sheets, Day 7 at 25° C.): >10^6
- microbes in treatment sheet laid on imitation vomit ([1]; 20 sheets, Day 0 at 25° C.): <10
- microbes in treatment sheet laid on imitation vomit ([1]; 20 sheets, Day 7 at 25° C.): >10^6
- microbes in treatment sheet laid on imitation vomit ([1]; 30 sheets, Day 0 at 25° C.): <10
- microbes in treatment sheet laid on imitation vomit ([1]; 30 sheets, Day 7 at 25° C.): >10^6
- microbes in treatment sheet laid on imitation vomit ([2]; 1 sheet, Day 0 at 25° C.): <10
- microbes in treatment sheet laid on imitation vomit ([2]; 1 sheet, Day 7 at 25° C.): >10^6
- microbes in treatment sheet laid on imitation vomit ([2]; 2 sheets, Day 0 at 25° C.): <10
- microbes in treatment sheet laid on imitation vomit ([2]; 2 sheets, Day 7 at 25° C.): >10^6
- microbes in treatment sheet laid on imitation vomit ([2]; 3 sheets, Day 0 at 25° C.): <10
- microbes in treatment sheet laid on imitation vomit ([2]; 3 sheets, Day 7 at 25° C.): >10^6
- microbes in treatment sheet laid on imitation vomit ([2]; 4 sheets, Day 0 at 25° C.): <10
- microbes in treatment sheet laid on imitation vomit ([2]; 4 sheets, Day 7 at 25° C.): >10^6
- microbes in treatment sheet laid on imitation vomit ([2]; 5 sheets, Day 0 at 25° C.): <10
- microbes in treatment sheet laid on imitation vomit ([2]; 5 sheets, Day 7 at 25° C.): >10^6
- microbes in treatment sheet laid on imitation vomit ([2]; 6 sheets, Day 0 at 25° C.): <10
- microbes in treatment sheet laid on imitation vomit ([2]; 6 sheets, Day 7 at 25° C.): >10^6
- microbes in treatment sheet laid on imitation vomit ([2]; 8 sheets, Day 0 at 25° C.): <10
- microbes in treatment sheet laid on imitation vomit ([2]; 8 sheets, Day 7 at 25° C.): 1.1 × 10^4
- microbes in treatment sheet laid on imitation vomit ([2]; 10 sheets, Day 0 at 25° C.): <10
- microbes in treatment sheet laid on imitation vomit ([2]; 10 sheets, Day 7 at 25° C.): 7.1 × 10^2
- microbes in treatment sheet laid on imitation vomit ([2]; 20 sheets, Day 0 at 25° C.): <10
- microbes in treatment sheet laid on imitation vomit ([2]; 20 sheets, Day 7 at 25° C.): <10
- microbes in treatment sheet laid on imitation vomit ([2]; 30 sheets, Day 0 at 25° C.): <10
- microbes in treatment sheet laid on imitation vomit ([2]; 30 sheets, Day 7 at 25° C.): <10
- microbes remaining, wiped 1 Time ([3]; stored at 25° C. Day 0): <10
- microbes remaining, wiped 2 Times ([3]; stored at 25° C. Day 0): <10
- microbes remaining, wiped 3 Times ([3]; stored at 25° C. Day 0): <10
- microbes remaining, wiped 1 Time ([3]; stored at 25° C. Day 7): 2.1 × 10^3
- microbes remaining, wiped 2 Times ([3]; stored at 25° C. Day 7): 6.5 × 10^2
- microbes remaining, wiped 3 Times ([3]; stored at 25° C. Day 7): 1.8 × 10^2
- Microbe count on floor, wiped 1 Time ([4]; Day 0 at 25° C.): <10
- Microbe count on floor, wiped 2 Times ([4]; Day 0 at 25° C.): <10
- Microbe count on floor, wiped 3 Times ([4]; Day 0 at 25° C.): <10
- Microbe count on floor, wiped 1 Time ([4]; Day 7 at 25° C.): 2.3 × 10^4
- Microbe count on floor, wiped 2 Times ([4]; Day 7 at 25° C.): 7.8 × 10^3
- Microbe count on floor, wiped 3 Times ([4]; Day 7 at 25° C.): 2.1 × 10^3
- microbes remaining, wiped 1 Time [5, 10]: <10
- microbes remaining, wiped 2 Times [5, 10]: <10
- microbes remaining, wiped 3 Times [5, 10]: <10
- microbes remaining, wiped 1 Time [5, 11]: 1.5 × 10^3
- microbes remaining, wiped 2 Times [5, 11]: 1.0 × 10^3
- microbes remaining, wiped 3 Times [5, 11]: 2.6 × 10^2
- microbes remaining, wiped 7 Times [5, 11]: <10
- microbes remaining, wiped 1 Time ([6]; stored at 25° C. Day 0): <10
- microbes remaining, wiped 2 Times ([6]; stored at 25° C. Day 0): <10
- microbes remaining, wiped 3 Times ([6]; stored at 25° C. Day 0): <10
- microbes remaining, wiped 1 Time ([6]; stored at 25° C. Day 7): 4.2 × 10^3
- microbes remaining, wiped 2 Times ([6]; stored at 25° C. Day 7): 1.2 × 10^3
- microbes remaining, wiped 3 Times ([6]; stored at 25° C. Day 7): 1.1 × 10^2
- microbes remaining, wiped 1 Time ([7]; stored at 25° C. Day 0): <10
- microbes remaining, wiped 2 Times ([7]; stored at 25° C. Day 0): <10
- microbes remaining, wiped 3 Times ([7]; stored at 25° C. Day 0): <10
- microbes remaining, wiped 1 Time ([7]; stored at 25° C. Day 7): 3.2 × 10^3
- microbes remaining, wiped 2 Times ([7]; stored at 25° C. Day 7): 1.0 × 10^3
- microbes remaining, wiped 3 Times ([7]; stored at 25° C. Day 7): 3.0 × 10^2
- microbes remaining, wiped 1 Time ([8]; stored at 25° C. Day 0): <10
- microbes remaining, wiped 2 Times ([8]; stored at 25° C. Day 0): <10
- microbes remaining, wiped 3 Times ([8]; stored at 25° C. Day 0): <10
- microbes remaining, wiped 1 Time ([8]; stored at 25° C. Day 7): 1.1 × 10^3
- microbes remaining, wiped 2 Times ([8]; stored at 25° C. Day 7): 3.6 × 10^2
- Microbe count on floor, wiped 1 Time ([9]; Day 0 at 25° C.): <10
- Microbe count on floor, wiped 2 Times ([9]; Day 0 at 25° C.): <10
- Microbe count on floor, wiped 3 Times ([9]; Day 0 at 25° C.): <10
- Microbe count on floor, wiped 1 Time ([9]; Day 7 at 25° C.): 8.7 × 10^6
- Microbe count on floor, wiped 2 Times ([9]; Day 7 at 25° C.): 7.3 × 10^3
- Microbe count on floor, wiped 3 Times ([9]; Day 7 at 25° C.): 3.3 × 10^3
- sterilization/removal of pathogenic microbes in stacked treatment sheets (pathogenic microbes): able to sterilize pathogenic microbes from the first sheet
